Laboratory results reported in patent publication US20220031684A1, “PROPHYLACTIC EFFICACY OF SEROTONIN 4 RECEPTOR AGONISTS AGAINST STRESS” (THE TRUSTEES OF COLUMBIA UNIVERSITY IN THE CITY OF NEW YORK, priority 2019, published 2022).
Structures can show the parent of a compound that is named as a salt.

Key:
[1] = test system: 129S6/SvEv mice; experiment: 3-shock contextual fear conditioning (CFC); type: in vivo
Procedure: (§1) This chronic CORT elevation dysregulates the hypothalamic-pituitary-adrenal axis (HPA) in a manner similar to that observed in clinical depression. The dose and duration of CORT treatment was selected based on previous studies. CORT (35 μg/ml, equivalent to about 5 mg/kg/day) dissolved in 0.45% hydroxypropyl-o-cyclodextrin (0-CD) or vehicle (VEH) (0.45% j-CD) was available ad libitum in the drinking water in opaque bottles to protect it from light. VEH- and CORT-treated water was changed every 3 days to prevent possible degradation. Contextual Fear Conditioning (CFC): A 3-shock CFC procedure was administered as previously published. Briefly, mice were placed into context A and administered 3 2-s shocks (0.75 mA) at 180 s, 240 s or 300 s following placement into context A. Mice were removed from the context 15 s following the termination of shock (at 317 s). For context retrieval, mice were placed back into context A for 300 s. Electrophysiology: Electrophysiology was conducted as previously described. Statistical Analysis: Results from data analyses are expressed as means±SEM. Alpha was set to 0.05 for all analyses. Data were analyzed using GraphPad Prism v7.0 or v8.0. For all experiments, unless otherwise noted, one- or two-way ANOVAs with repeated-measures were applied to the data as appropriate. Significant main effects and/or interactions were followed by Fisher's PLSD post hoc analysis or unpaired t-tests. Drugs: All drugs were prepared in physiological saline and all injections were administered intraperitoneally (i.p.) in volumes of 0.1 cc per […] body weight unless otherwise noted. Fluoxetine hydrochloride (Flx): Flx (BioTrend Chemicals AG, BG197, Zurich, Germany) was administered in the drinking water (18 mg/kg/day) for 3 weeks before the start of CORT. […] (R,S)-ketamine (K): (R,S)-ketamine (Ketaset III, Ketamine HCl injection, Fort Dodge Animal Health, Fort Dodge, Iowa) was administered in a single dose at 30 mg/kg of body weight 1 week before the start of CFC. […] PF-04995274: PF-04995274 (Sigma, Catalog No. 1331782-27-4, St. Louis, Mo.) was administered a single dose at 3 or 10 mg/kg of body weight 1 week before the start of CFC. PF-04995274 was dissolved in saline using an ultrasonic homogenizer (BioLogics, Model 3000, Manassas, Va.). Osmotic minipump implantation: ALZET osmotic minipumps (Model 2004, […], 28 days) were implanted subcutaneously under isoflurane anesthesia as previously described [S2]. Osmotic minipumps were rotated under the skin two to three times per week. Behavioral Assays: All experiments were approved by the Institutional Animal Care and Use Committee (IACUC) at the New York Psychiatric Institute (NYSPI). Elevated Plus Maze (EPM): Testing was performed as previously described [S3]. Briefly, the maze is a plus-cross-shaped apparatus consisting of four arms, two open and two enclosed by walls, linked by a central platform at a height of 50 cm from the floor. Mice were individually placed in the center of the maze facing an open arm and were allowed to explore the maze for 5 min. The time spent in and the number of entries into the open arms was used as an anxiety index. Videos were scored using ANY-maze behavior tracking software (Stoelting, Wood Dale, Ill.). Novelty-Suppressed Feeding: The NSF is a conflict test that elicits competing motivations: the drive to eat and the fear of venturing into the center of a brightly lit arena. The latency to feed is used as an index of anxiety-like behavior, because classical anxiolytic drugs decrease this measure. The NSF test was carried out during an 8 min period as previously described [S3]. Briefly, the testing apparatus consisted of a plastic box (50×50×20 cm), the floor of which was covered with approximately 2 cm of bedding. For 129S6/SvEv experiments, mice were food restricted for 12 h. For the C57BL/6N experiments, mice were food restricted for 24 h. […]

[2] = test system: 129S6/SvEv mice; experiment: Forced swim test (FST) after CFC; type: in vivo
Procedure: as §1

[3] = test system: CA3 pyramidal cells; experiment: Whole-cell voltage clamp recordings of spontaneous EPSCs in CA3 slices; type: cell-based, mice; details: (R,S)-ketamine 30 mg/kg or prucalopride 3 mg/kg injected 1 week before slicing
Procedure: as §1

[4] = biological target: 5-HT4R; details: cited from earlier work
[5] = biological target: hERG (human Ether-a-go-go Related Gene) channels (Homo sapiens, UniProt Q12809); details: cited from earlier work
[6] = FIG. 4 cohort, Male, FIG. 4C, RMANOVA, Fisher's LSD
[7] = FIG. 4 cohort, Male, FIG. 4D, ANOVA, Fisher's LSD
[8] = FIG. 4 cohort, Male, FIG. 4F, RMANOVA, Fisher's LSD
[9] = FIG. 4 cohort, Male, FIG. 4G, ANOVA, Fisher's LSD

hERG (human Ether-a-go-go Related Gene) channels, sequence (Q12809 whole entry): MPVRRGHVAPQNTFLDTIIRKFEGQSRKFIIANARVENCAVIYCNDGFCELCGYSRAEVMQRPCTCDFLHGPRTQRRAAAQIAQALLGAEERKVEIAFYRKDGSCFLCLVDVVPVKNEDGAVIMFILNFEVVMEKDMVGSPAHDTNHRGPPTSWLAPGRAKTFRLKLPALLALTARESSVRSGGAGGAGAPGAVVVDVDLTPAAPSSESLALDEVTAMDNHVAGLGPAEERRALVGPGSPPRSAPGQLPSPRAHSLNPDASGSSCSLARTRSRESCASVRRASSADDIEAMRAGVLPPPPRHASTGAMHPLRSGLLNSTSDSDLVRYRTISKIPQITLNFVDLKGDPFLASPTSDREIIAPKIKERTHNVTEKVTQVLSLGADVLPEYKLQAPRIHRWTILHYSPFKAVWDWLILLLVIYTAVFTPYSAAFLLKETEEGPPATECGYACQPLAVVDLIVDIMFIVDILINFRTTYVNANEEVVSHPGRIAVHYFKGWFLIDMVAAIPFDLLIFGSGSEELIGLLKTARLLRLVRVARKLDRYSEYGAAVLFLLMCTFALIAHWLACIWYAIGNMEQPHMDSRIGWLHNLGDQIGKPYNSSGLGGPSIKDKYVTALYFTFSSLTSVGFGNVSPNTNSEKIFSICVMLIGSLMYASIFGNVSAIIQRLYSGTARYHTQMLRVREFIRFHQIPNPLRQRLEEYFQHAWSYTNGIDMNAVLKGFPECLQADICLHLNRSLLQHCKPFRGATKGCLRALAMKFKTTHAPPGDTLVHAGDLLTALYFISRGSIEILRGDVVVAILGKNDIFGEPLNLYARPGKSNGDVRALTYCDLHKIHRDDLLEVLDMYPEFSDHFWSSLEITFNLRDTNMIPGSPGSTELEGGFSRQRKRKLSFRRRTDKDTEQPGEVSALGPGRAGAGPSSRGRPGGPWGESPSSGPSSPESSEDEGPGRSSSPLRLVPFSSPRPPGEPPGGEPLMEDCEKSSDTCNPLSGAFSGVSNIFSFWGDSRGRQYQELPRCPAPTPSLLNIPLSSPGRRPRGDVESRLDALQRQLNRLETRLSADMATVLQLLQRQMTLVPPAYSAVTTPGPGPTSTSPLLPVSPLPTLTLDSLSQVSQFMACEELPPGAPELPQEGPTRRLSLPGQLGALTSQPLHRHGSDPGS

COCCCN1CCC(NC(=O)c2cc(Cl)c(N)c3c2OCC3)CC1 [Prucalopride, 4-amino-5-chloro-2,3-dihydro-N-[1-3-methoxypropyl)-4-piperidinyl]-7-benzofuran carboxamide monohydrochloride]
p, CFC Re-exposure Freezing (%), Prucalopride (3 mg/kg) vs. PF04995274 (3 mg/kg) [1, 6]: 0.0014 | p, CFC Re-exposure Freezing (%), Prucalopride (3 mg/kg) vs. PF04995274 (10 mg/kg) [1, 6]: 0.2229 | p, CFC Re-exposure Freezing (%), Prucalopride (3 mg/kg) vs. Prucalopride (10 mg/kg) [1, 6]: 0.0004 | p, CFC Re-exposure Freezing (%), Prucalopride (10 mg/kg) vs. PF04995274 (3 mg/kg) [1, 6]: 0.7981 | p, CFC Re-exposure Freezing (%), Prucalopride (10 mg/kg) vs. PF04995274 (10 mg/kg) [1, 6]: 0.0568 | p, CFC Re-exposure Freezing (%), Saline vs. Prucalopride (3 mg/kg) [1, 6]: 0.0004 | p, CFC Re-exposure Freezing (%), Saline vs. Prucalopride (10 mg/kg) [1, 6]: 0.4723 | p, CFC Re-exposure, Prucalopride (3 mg/kg) vs. PF04995274 (3 mg/kg) [1, 7]: 0.0014 | p, CFC Re-exposure, Prucalopride (3 mg/kg) vs. PF04995274 (10 mg/kg) [1, 7]: 0.2229 | p, CFC Re-exposure, Prucalopride (3 mg/kg) vs. Prucalopride (10 mg/kg) [1, 7]: 0.0004 | p, CFC Re-exposure, Prucalopride (10 mg/kg) vs. PF04995274 (3 mg/kg) [1, 7]: 0.7981 | p, CFC Re-exposure, Prucalopride (10 mg/kg) vs. PF04995274 (10 mg/kg) [1, 7]: 0.0568 | p, CFC Re-exposure, Saline vs. Prucalopride (3 mg/kg) [1, 7]: 0.0004 | p, CFC Re-exposure, Saline vs. Prucalopride (10 mg/kg) [1, 7]: 0.4723 | freezing during CFC training ([1]; male 129S6/SvEv, (R,S)-ketamine 30, prucalopride 3 or 10, PF-04995274 3 or 10 mg/kg, 1 week before CFC, vs saline): comparable levels of freezing | freezing at re-exposure to the training context (learned fear) vs saline ([1]; male 129S6/SvEv, single i.p. injection 1 week before CFC, re-exposure 5 days later, 3 mg/kg): attenuated learned fear | p, FST Day 2 Immobility Time (sec), Prucalopride (3 mg/kg) vs. PF04995274 (3 mg/kg) [2, 8]: 0.2475 | p, FST Day 2 Immobility Time (sec), Prucalopride (3 mg/kg) vs. PF04995274 (10 mg/kg) [2, 8]: 0.4224 | p, FST Day 2 Immobility Time (sec), Prucalopride (3 mg/kg) vs. Prucalopride (10 mg/kg) [2, 8]: 0.0568 | p, FST Day 2 Immobility Time (sec), Prucalopride (10 mg/kg) vs. PF04995274 (3 mg/kg) [2, 8]: 0.6674 | p, FST Day 2 Immobility Time (sec), Prucalopride (10 mg/kg) vs. PF04995274 (10 mg/kg) [2, 8]: 0.0209 | p, FST Day 2 Immobility Time (sec), Saline vs. Prucalopride (3 mg/kg) [2, 8]: 0.0052 | p, FST Day 2 Immobility Time (sec), Saline vs. Prucalopride (10 mg/kg) [2, 8]: 0.1772 | p, FST Day 2 Immobility Time (min 3-6) (sec), Prucalopride (3 mg/kg) vs. PF04995274 (3 mg/kg) [2, 9]: 0.4089 | p, FST Day 2 Immobility Time (min 3-6) (sec), Prucalopride (3 mg/kg) vs. PF04995274 (10 mg/kg) [2, 9]: 0.3387 | p, FST Day 2 Immobility Time (min 3-6) (sec), Prucalopride (3 mg/kg) vs. Prucalopride (10 mg/kg) [2, 9]: 0.0622 | p, FST Day 2 Immobility Time (min 3-6) (sec), Prucalopride (10 mg/kg) vs. PF04995274 (3 mg/kg) [2, 9]: 0.4653 | p, FST Day 2 Immobility Time (min 3-6) (sec), Saline vs. Prucalopride (3 mg/kg) [2, 9]: 0.0093 | p, FST Day 2 Immobility Time (min 3-6) (sec), Saline vs. Prucalopride (10 mg/kg) [2, 9]: 0.2443 | p, FST Day 2 Immobility Time (min 3-6) (sec), Prucalopride (10 mg/kg) vs. PF04995274 ([2]; FIG. 4 cohort, Male, FIG. 4G, ANOVA, Fisher's LSD, PF04995274 dose stands below the shown rows): 0.0156 | immobility, FST day 1 ([2]; male 129S6/SvEv, (R,S)-ketamine 30, prucalopride 3 or 10, PF-04995274 3 or 10 mg/kg): comparable levels of immobility | immobility time, FST day 2 vs saline ([2]; male 129S6/SvEv, single injection 1 week before CFC, 3 mg/kg): decreased immobility time | average EPSC amplitude vs saline [3]: no differences | large AMPA receptor-mediated bursts of EPSCs [3]: not present | number of EPSCs vs saline [3]: no differences | Affinity (pKi) [4]: 8.1-8.6 | affinity for the hERG channels [5]: no affinity
